Results as given in patent US8148391B2 (Cephalon, Inc., priority 2006, dated 2012).

Assays:
[1] = target: T1, baculovirus-expressed ALK (Homo sapiens, UniProt Q9UM73); experiment: ALK Kinase Assay (ELISA-type, time-resolved fluorescence); format: biochemical; conditions: 1 μM ATP (Km level), 30 ng/ml ALK, 37° C., 15 minutes; read-out: ALK Activity (ALK kinase inhibition, IC50 class)
T1 construct: host or cells: baculovirus expression system
Summary of the method: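 Wells were coated with phospholipase C-γ at 10 μg/mL in Tris-buffered saline. Adding 30 ng/ml enzyme started the reaction, which ran at 37° C for 15 minutes before Eu-N1 PT66 antibody detection. Percent inhibition versus log10 concentration gave IC50 by variable-slope fit.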

[2] = target: T2, c-Met (cytoplasmic domain) (Homo sapiens, UniProt P08581); experiment: c-Met Kinase Assay (same methods as for ALK, with modifications); format: biochemical; conditions: 1 μM ATP (Km level), 10 ng/mL c-Met; read-out: cMet Activity (c-Met kinase inhibition, IC50 class)
T2 construct: 10 ng/mL c-Met (cytoplasmic domain, Invitrogen Corporation #PV3143); purchased Invitrogen Corporation PV3143
Summary of the method: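 IC50 values were fitted by variable-slope sigmoidal regression of percent inhibition against log compound concentration. Phosphorylation was read with Eu-N1 PT66 antibody after a 15 min, 37 °C reaction. The reaction was initiated with 10 ng/mL c-Met cytoplasmic domain on wells coated with 10 μg/mL PLC-γ in TBS.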

T1 sequence (Q9UM73 19-1620): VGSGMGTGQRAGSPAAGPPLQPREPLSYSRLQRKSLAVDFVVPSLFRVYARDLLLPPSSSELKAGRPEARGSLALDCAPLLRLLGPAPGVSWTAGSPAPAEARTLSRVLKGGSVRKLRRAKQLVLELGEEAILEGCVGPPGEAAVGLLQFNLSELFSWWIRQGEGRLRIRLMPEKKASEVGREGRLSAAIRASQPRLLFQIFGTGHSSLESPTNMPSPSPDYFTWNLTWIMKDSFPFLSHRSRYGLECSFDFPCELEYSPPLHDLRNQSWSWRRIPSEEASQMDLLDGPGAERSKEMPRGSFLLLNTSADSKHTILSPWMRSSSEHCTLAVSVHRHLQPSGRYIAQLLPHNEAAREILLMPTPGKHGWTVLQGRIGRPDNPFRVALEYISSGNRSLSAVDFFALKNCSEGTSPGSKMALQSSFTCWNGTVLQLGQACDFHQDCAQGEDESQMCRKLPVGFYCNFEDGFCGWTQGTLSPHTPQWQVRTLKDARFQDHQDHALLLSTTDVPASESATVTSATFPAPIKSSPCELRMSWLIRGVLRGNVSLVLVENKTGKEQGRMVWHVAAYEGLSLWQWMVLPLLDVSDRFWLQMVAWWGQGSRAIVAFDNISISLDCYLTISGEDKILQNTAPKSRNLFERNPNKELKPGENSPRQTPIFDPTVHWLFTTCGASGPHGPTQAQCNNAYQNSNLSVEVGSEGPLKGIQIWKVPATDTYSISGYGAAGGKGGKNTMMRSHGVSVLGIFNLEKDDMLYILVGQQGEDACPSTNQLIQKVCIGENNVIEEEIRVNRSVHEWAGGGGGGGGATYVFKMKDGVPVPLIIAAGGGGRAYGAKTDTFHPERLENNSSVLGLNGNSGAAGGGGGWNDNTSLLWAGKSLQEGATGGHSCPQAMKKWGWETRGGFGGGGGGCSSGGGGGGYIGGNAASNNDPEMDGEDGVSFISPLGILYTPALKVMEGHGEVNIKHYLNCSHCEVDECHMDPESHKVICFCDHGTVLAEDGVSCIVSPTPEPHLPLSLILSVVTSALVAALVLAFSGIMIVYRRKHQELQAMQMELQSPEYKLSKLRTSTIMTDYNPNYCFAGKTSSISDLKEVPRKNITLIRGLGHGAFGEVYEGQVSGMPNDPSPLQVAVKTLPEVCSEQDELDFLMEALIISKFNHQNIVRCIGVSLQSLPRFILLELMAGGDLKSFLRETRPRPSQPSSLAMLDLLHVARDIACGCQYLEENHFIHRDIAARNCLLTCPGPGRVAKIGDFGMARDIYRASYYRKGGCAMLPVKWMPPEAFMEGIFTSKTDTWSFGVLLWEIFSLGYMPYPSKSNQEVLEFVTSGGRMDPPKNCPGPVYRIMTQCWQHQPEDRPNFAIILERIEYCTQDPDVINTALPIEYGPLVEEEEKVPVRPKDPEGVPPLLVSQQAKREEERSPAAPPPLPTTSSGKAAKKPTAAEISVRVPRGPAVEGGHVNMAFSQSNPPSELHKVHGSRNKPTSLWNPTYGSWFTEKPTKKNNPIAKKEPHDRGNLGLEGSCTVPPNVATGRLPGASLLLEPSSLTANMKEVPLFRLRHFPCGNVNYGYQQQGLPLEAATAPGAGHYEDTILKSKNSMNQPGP
T2 sequence (P08581 956-1390 limits assumed): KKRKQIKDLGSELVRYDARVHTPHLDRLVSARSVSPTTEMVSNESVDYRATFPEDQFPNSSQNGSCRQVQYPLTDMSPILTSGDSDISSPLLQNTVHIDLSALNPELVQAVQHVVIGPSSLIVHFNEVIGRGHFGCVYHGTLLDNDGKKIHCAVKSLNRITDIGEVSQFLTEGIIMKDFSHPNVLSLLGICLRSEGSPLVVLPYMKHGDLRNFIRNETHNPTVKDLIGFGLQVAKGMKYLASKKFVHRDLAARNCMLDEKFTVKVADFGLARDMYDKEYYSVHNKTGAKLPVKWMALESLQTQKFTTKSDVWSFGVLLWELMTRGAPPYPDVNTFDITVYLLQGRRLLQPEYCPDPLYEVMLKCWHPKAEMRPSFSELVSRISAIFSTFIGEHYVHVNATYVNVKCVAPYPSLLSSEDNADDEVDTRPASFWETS

| SMILES | IC50 [1] [nM] | IC50 [2] [nM] |
| --- | --- | --- |
| COc1cc2c(cc1Nc1ncc(Cl)c(NC3(C(=O)NCC#N)CC3)n1)CCN(CC(=O)N(C)C)CC2 [Example 1199, 1-[5-Chloro-2-(3-dimethylcarbamoylmethyl-8-methoxy-2,3,4,5-tetrahydro-1H-benzo[d]azepin-7-ylamino)-pyrimidin-4-ylamino]-cyclopropanecarboxylic acid cyanomethyl-amide] | 100 to 1000 | > 10000 |
| COc1ccc(Nc2nc(Nc3cc4c(cc3OC)CCN(CC(=O)N(C)C)CC4)ncc2Cl)c(OC)n1 [Example 1200, 2-{7-[5-Chloro-4-(2,6-dimethoxy-pyridin-3-ylamino)-pyrimidin-2-ylamino]-8-methoxy-1,2,4,5-tetrahydro-benzo[d]azepin-3-yl}-N,N-dimethyl-acetamide] | < 100 | 1000 to 10000 |
| COc1cc2c(cc1Nc1ncc(Cl)c(Nc3ccccc3S(=O)(=O)N(C)C)n1)CCN(CC(=O)N1CCC1)CC2 [Example 1201, 2-{2-[3-(2-Azetidin-1-yl-2-oxo-ethyl)-8-methoxy-2,3,4,5-tetrahydro-1H-benzo[d]azepin-7-ylamino]-5-chloro-pyrimidin-4-ylamino}-N,N-dimethyl-benzenesulfonamide] | < 100 | > 10000 |
| COc1cc2c(cc1Nc1ncc(Cl)c(NC3(C(=O)OC(C)C)CCCC3)n1)CCN(CC(=O)N(C)C)CC2 [Example 1202, 1-[5-Chloro-2-(3-dimethylcarbamoylmethyl-8-methoxy-2,3,4,5-tetrahydro-1H-benzo[d]azepin-7-ylamino)-pyrimidin-4-ylamino]-cyclopentanecarboxylic acid isopropyl ester] | 100 to 1000 | > 10000 |
| COc1cc2c(cc1Nc1ncc(Cl)c(Nc3ccccc3S(=O)(=O)N3CC[C@@H](O)C3)n1)CCN(CC(=O)N(C)C)CC2 [Example 1205, 2-(7-{5-Chloro-4-[2-((R)-3-hydroxy-pyrrolidine-1-sulfonyl)-phenylamino]-pyrimidin-2-ylamino}-8-methoxy-1,2,4,5-tetrahydro-benzo[d]azepin-3-yl)-N,N-dimethyl-acetamide] | < 100 | 1000 to 10000 |
| COc1cc2c(cc1Nc1ncc(Cl)c(Nc3ccccc3S(=O)(=O)N3CC[C@H](O)C3)n1)CCN(CC(=O)N(C)C)CC2 [Example 1206, 2-(7-{5-Chloro-4-[2-((S)-3-hydroxy-pyrrolidine-1-sulfonyl)-phenylamino]-pyrimidin-2-ylamino}-8-methoxy-1,2,4,5-tetrahydro-benzo[d]azepin-3-yl)-N,N-dimethyl-acetamide] | < 100 | 1000 to 10000 |
| COc1cc2c(cc1Nc1ncc(Cl)c(Nc3ccccc3S(=O)(=O)N(C)C)n1)CCN(C(=O)C(C)(C)N)CC2 [Example 1207, 2-{2-[3-(2-Amino-2-methyl-propionyl)-8-methoxy-2,3,4,5-tetrahydro-1H-benzo[d]azepin-7-ylamino]-5-chloro-pyrimidin-4-ylamino}-N,N-dimethyl-benzenesulfonamide] | < 100 | 1000 to 10000 |
| CNc1nc(OC)ccc1Nc1nc(Nc2cc3c(cc2OC)CCN(CC(=O)N(C)C)CC3)ncc1Cl [Example 1208, 2-{7-[5-Chloro-4-(6-methoxy-2-methylamino-pyridin-3-ylamino)-pyrimidin-2-ylamino]-8-methoxy-1,2,4,5-tetrahydro-benzo[d]azepin-3-yl}-N,N-dimethyl-acetamide] | < 100 | > 10000 |
| CNc1nc(N2CCOCC2)ccc1Nc1nc(Nc2cc3c(cc2OC)CCN(CC(=O)N(C)C)CC3)ncc1Cl [Example 1209, 2-{7-[5-Chloro-4-(2-methylamino-6-morpholin-4-yl-pyridin-3-ylamino)-pyrimidin-2-ylamino]-8-methoxy-1,2,4,5-tetrahydro-benzo[d]azepin-3-yl}-N,N-dimethyl-acetamide] | < 100 | > 10000 |
| CNC(=O)c1cccc(F)c1Nc1nc(Nc2ccc3c(c2)NC(=O)CCO3)ncc1Cl [Example 1221, 2-[5-Chloro-2-(8-oxo-6,7,8,9-tetrahydro-5-oxa-9-aza-benzocyclohepten-2-ylamino)-pyrimidin-4-ylamino]-3-fluoro-N-methyl-benzamide] | 100 to 1000 | < 100 |
| CNC(=O)c1cccc(F)c1Nc1nc(Nc2ccc3c(c2)C(=O)NCCO3)ncc1Cl [Example 1222, 2-[5-Chloro-2-(5-oxo-2,3,4,5-tetrahydro-1,4-benzoxazepin-7-ylamino)-pyrimidin-4-ylamino]-3-fluoro-N-methyl-benzamide] | 100 to 1000 | 100 to 1000 |
| CCN1C(=O)CCCc2ccc(Nc3ncc(Cl)c(Nc4cccc(CCC#N)c4)n3)cc21 [Example 1223, 3-{3-[5-Chloro-2-(1-ethyl-2-oxo-2,3,4,5-tetrahydro-1H-1-benzazepin-8-ylamino)-pyrimidin-4-ylamino]-phenyl}-propionitrile] | 100 to 1000 | 100 to 1000 |
| CNC(=O)c1cccc(F)c1Nc1nc(Nc2ccc3c(c2)CNC(=O)CCN3C(C)=O)ncc1Cl [Example 1224, 2-[2-(1-Acetyl-4-oxo-1,2,3,4,5,6-hexahydro-benzo[b][1,5]diazocin-8-ylamino)-5-chloro-pyrimidin-4-ylamino]-3-fluoro-N-methyl-benzamide] | < 100 | < 100 |
| CCN1C(=O)CCCc2ccc(Nc3ncc(Cl)c(Nc4ccc(CC#N)cc4)n3)cc21 [Example 1225, {4-[5-Chloro-2-(1-ethyl-2-oxo-2,3,4,5-tetrahydro-1H-1-benzazepin-8-ylamino)-pyrimidin-4-ylamino]-phenyl}-acetonitrile] | 100 to 1000 | 1000 to 10000 |
| CCN1C(=O)CCCc2ccc(Nc3ncc(Cl)c(Nc4ccc(OCC#N)cc4)n3)cc21 [Example 1226, {4-[5-Chloro-2-(1-ethyl-2-oxo-2,3,4,5-tetrahydro-1H-1-benzazepin-8-ylamino)-pyrimidin-4-ylamino]-phenoxy}-acetonitrile] | 100 to 1000 | 1000 to 10000 |
| CNC(=O)c1cccc(O)c1Nc1nc(Nc2ccc3c(c2)CCN(CCOC)CC3)ncc1Cl [Example 1227, 2-{5-Chloro-2-[3-(2-methoxy-ethyl)-2,3,4,5-tetrahydro-1H-3-benzazepin-7-ylamino]-pyrimidin-4-ylamino}-3-hydroxy-N-methyl-benzamide] | 100 to 1000 | 100 to 1000 |
| CCNC(=O)c1cccc(F)c1Nc1nc(Nc2ccc3c(c2)CNC(=O)CCN3C(C)=O)ncc1Cl [Example 1228, 2-[2-(1-Acetyl-4-oxo-1,2,3,4,5,6-hexahydro-benzo[b][1,5]diazocin-8-ylamino)-5-chloro-pyrimidin-4-ylamino]-N-ethyl-3-fluoro-benzamide] | 100 to 1000 | < 100 |
| CCN1C(=O)CCCc2ccc(Nc3ncc(Cl)c(Nc4cccc(CC#N)c4)n3)cc21 [Example 1229, {3-[5-Chloro-2-(1-ethyl-2-oxo-2,3,4,5-tetrahydro-1H-1-benzazepin-8-ylamino)-pyrimidin-4-ylamino]-phenyl}-acetonitrile] | 100 to 1000 | 100 to 1000 |
| CCN1C(=O)CCCc2ccc(Nc3ncc(Cl)c(Nc4ccccc4OCC#N)n3)cc21 [Example 1230, {2-[5-Chloro-2-(1-ethyl-2-oxo-2,3,4,5-tetrahydro-1H-1-benzazepin-8-ylamino)-pyrimidin-4-ylamino]-phenoxy}-acetonitrile] | < 100 | < 100 |
| CC(=O)N1CCC(=O)NCc2cc(Nc3ncc(Cl)c(Nc4ccccc4OCC#N)n3)ccc21 [Example 1231, {2-[2-(1-Acetyl-4-oxo-1,2,3,4,5,6-hexahydro-benzo[b][1,5]diazocin-8-ylamino)-5-chloro-pyrimidin-4-ylamino]-phenoxy}-acetonitrile] | < 100 | < 100 |
| CCN1C(=O)CCCc2ccc(Nc3ncc(Cl)c(Nc4ccccc4CCC#N)n3)cc21 [Example 1232, 3-{2-[5-Chloro-2-(1-ethyl-2-oxo-2,3,4,5-tetrahydro-1H-1-benzazepin-8-ylamino)-pyrimidin-4-ylamino]-phenyl}-propionitrile] | 100 to 1000 | 1000 to 10000 |
| CC(=O)N1CCC(=O)NCc2cc(Nc3ncc(Cl)c(Nc4ccccc4CCC#N)n3)ccc21 [Example 1233, 3-{2-[2-(1-Acetyl-4-oxo-1,2,3,4,5,6-hexahydro-benzo[b][1,5]diazocin-8-ylamino)-5-chloro-pyrimidin-4-ylamino]-phenyl}-propionitrile] | 100 to 1000 | 100 to 1000 |
| COc1cc(N2CCOCC2)ccc1Nc1nc(Nc2ccc3c(c2)NC(=O)CCC3(C)C)ncc1Cl [Example 1234, 8-[5-Chloro-4-(2-methoxy-4-morpholin-4-yl-phenylamino)-pyrimidin-2-ylamino]-5,5-dimethyl-1,3,4,5-tetrahydro-1-benzazepin-2-one] | < 100 | 100 to 1000 |
| CNC(=O)c1ccc([N+](=O)[O-])cc1Nc1nc(Nc2ccc3c(c2)C(C)(C)CCC(=O)N3)ncc1Cl [Example 1235, 2-[5-Chloro-2-(5,5-dimethyl-2-oxo-2,3,4,5-tetrahydro-1H-1-benzazepin-7-ylamino)-pyrimidin-4-ylamino]-N-methyl-4-nitro-benzamide] | < 100 | 100 to 1000 |
| CC1(C)CCC(=O)Nc2cc(Nc3ncc(Cl)c(N[C@H]4[C@@H](C(N)=O)[C@@H]5C=C[C@H]4C5)n3)ccc21 [Example 1236, (1S,2S,3R,4R)-3-[5-Chloro-2-(5,5-dimethyl-2-oxo-2,3,4,5-tetrahydro-1H-1-benzazepin-8-ylamino)-pyrimidin-4-ylamino]-bicyclo[2.2.1]hept-5-ene-2-carboxylic acid amide] | < 100 | < 100 |
